Patent US7728131B2, “Amide derivative and medicine” (Nippon Shinyaku Co., Ltd., priority 2003, dated 2010)
Where a name gives a salt, the structure may show the parent alone. Read-outs that look alike come from different tables or passages of the source.

Legend:
U937 cells = assay: Cell growth inhibitory effect, U937 cells (Cell counting Kit-8, 72 hours); type: cell-based; conditions: Homo sapiens, U-937, BCR-ABL negative U937 cells, WST-8 absorbance
Protocol: The plate was incubated in a CO2 incubator overnight. […] The plate was incubated in a CO2 incubator. After 72 hours, 20 μl

K562 cells = assay: Cell growth inhibitory effect, K562 cells (Cell counting Kit-8, 72 hours); conditions: for IC50: Homo sapiens, K562, 72 h, read-out: K562 cells (IC50 value: μM); for Ratio (U937 cells/K562 cells): IC50 U937 cells / IC50 K562 cells;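 on all read-outs here: Read-out is formazan absorbance at 450 nm from WST-8 reduction after a 3 h color reaction, with K562 and U937 cells grown in 96-well plates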
Protocol: of Cell counting Kit-8 (5 mmol/l WST-8, 0.2 mmol/1 1-Methoxy PMS, 150 mmol/l NaCl) (manufactured by Dojindo) was added to each well. After reaction for color development in a CO2 incubator for 3 hours, an absorbance of formazan, generated by reduction of WST-8 was determined at 450 nm using Multi-level counter ARVOsx (manufactured by Wallac).
K562 cells and U937 cells (purchased from American Type Culture Collection) were cultured in a RPMI-1640 medium (manufactured by Sigma) containing 10% (v/v) fetal calf serum (FCS) (manufactures by Sigma) (RPMI-1640/FCS). K562 cells and U937 cells were seeded at a density of 5000 cells/100 μl/well and 4000 cells/100 μl/well in each of 96-hole-plate (manufactured by costar), respectively. The plate was incubated in a CO2 incubator overnight. […] The resulting solution was diluted 500 times in a RPMI-1640/FCS medium and then 100 μl of the diluent was added in a well. The plate was incubated in a CO2 incubator. After 72 hours, 20 μl

[1] = read-out: U937 cells (IC50 value: μM)
[2] = continuation of Table 3, read-out: U937 cells (IC50 value: nμM)

## Cc1ccc(NC(=O)c2ccc(CN3CCN(C)CC3)c(C(F)(F)F)c2)cc1Nc1cc(-c2cccnc2)ccn1 (as salt: methanesulfonate) [Example 29, 4-(4-methylpiperazin-1-ylmethyl)-3-trifluoromethyl-N-{4-methyl-3-[4-(3-pyridyl)pyridin-2-ylamino]phenyl}benzamide methanesulfonate]
other
  melting point: 189 to 191 °C

## CN[C@H]1CCN(Cc2ccc(C(=O)Nc3ccc(C)c(Nc4nccc(-c5cncnc5)n4)c3)cc2C(F)(F)F)C1 (as salt: salt) [Example 68, (−)-4-[(S)-3-(methylamino)pyrrolidin-1-ylmethyl]-3-trifluoromethyl-N-{4-methyl-3-[4-(5-pyrimidinyl)pyrimidin-2-ylamino]phenyl}benzamide]
other
  melting point: 142 to 149 °C (dec.)

## Cc1ccc(NC(=O)c2ccc(CN3CCNCC3)c(C(F)(F)F)c2)cc1Nc1nccc(-c2cncnc2)n1 (as salt: trifluoroacetate) [Example 43, 4-(1-piperazinylmethyl)-3-trifluoromethyl-N-{4-methyl-3-[4-(5-pyrimidinyl)pyrimidin-2-ylamino]phenyl}benzamide trifluoroacetate]
other
  melting point: 199 to 202 °C (dec.)

## Cc1ccc(NC(=O)c2ccc(CN3CCN(C)CC3)c(C(F)F)c2)cc1Nc1nccc(-c2cncnc2)n1.Cl [Example 2, 3-difluoromethyl-4-(4-methylpiperazin-1-ylmethyl)-N-{4-methyl-3-[4-(5-pyrimidinyl)pyrimidin-2-ylamino]phenyl}benzamide hydrochloride]
U937 cells; [1]
  IC50: 15 µM
other
  melting point: 264 °C (dec.)
K562 cells
  IC50: 0.0028 µM
  Ratio (U937 cells/K562 cells): 5357

## CCc1cc(C(=O)Nc2ccc(C)c(Nc3nccc(-c4cncnc4)n3)c2)ccc1CN1CCN(C)CC1.Cl [Example 4, 3-ethyl-4-(4-methylpiperazin-1-ylmethyl)-N-{4-methyl-3-[4-(5-pyrimidinyl)pyrimidin-2-ylamino]phenyl}benzamide hydrochloride]
U937 cells; [1]
  IC50: 28 µM
other
  melting point: 253 to 255 °C (dec.)
K562 cells
  IC50: 0.002 µM
  Ratio (U937 cells/K562 cells): 14000

## Cc1ccc(NC(=O)c2ccc(C=C3CCN(C)CC3)c(C(F)(F)F)c2)cc1Nc1nccc(-c2cncnc2)n1.Cl [Example 6, 4-(1-methylpiperidin-4-ylidenemethyl)-3-trifluoromethyl-N-{4-methyl-3-[4-(5-pyrimidinyl)pyrimidin-2-ylamino]phenyl}benzamide hydrochloride]
U937 cells; [1]
  IC50: 4.3 µM
other
  melting point: 202 to 206 °C (dec.)
K562 cells
  IC50: 0.0012 µM
  Ratio (U937 cells/K562 cells): 3583

## Cc1ccc(NC(=O)c2ccc(CC3CCN(C)CC3)c(C(F)(F)F)c2)cc1Nc1nccc(-c2cncnc2)n1.Cl [Example 8, 4-(1-methylpiperidin-4-ylmethyl)-3-trifluoromethyl-N-{4-methyl-3-[4-(5-pyrimidinyl)pyrimidin-2-ylamino]phenyl}benzamide hydrochloride]
U937 cells; [1]
  IC50: 4.6 µM
other
  melting point: 227 to 231 °C (dec.)
K562 cells
  IC50: 0.00098 µM
  Ratio (U937 cells/K562 cells): 4694

## Cc1ccc(NC(=O)c2ccc(OC3CCN(C)CC3)c(C(F)(F)F)c2)cc1Nc1nccc(-c2cncnc2)n1.Cl [Example 10, 4-(1-methylpiperidin-4-yloxy)-3-trifluoromethyl-N-{4-methyl-3-[4-(5-pyrimidinyl)pyrimidin-2-ylamino]phenyl}benzamide hydrochloride]
U937 cells; [1]
  IC50: 8.1 µM
other
  melting point: ≥ 275 °C
K562 cells
  IC50: 0.0021 µM
  Ratio (U937 cells/K562 cells): 3857

## Cc1ccc(NC(=O)c2cc(Cl)c(CN3CC[C@H](N(C)C)C3)c(Cl)c2)cc1Nc1nccc(-c2cncnc2)n1.Cl [Example 12, (−)-3,5-dichloro-4-[(S)-3-(dimethylamino)pyrrolidin-1-ylmethyl]-N-{4-methyl-3-[4-(5-pyrimidinyl)pyrimidin-2-ylamino]phenyl}benzamide hydrochloride]
U937 cells; [1]
  IC50: 4.7 µM
other
  melting point: 161 to 170 °C (dec.)
K562 cells
  IC50: 0.0056 µM
  Ratio (U937 cells/K562 cells): 839

## COc1cc(C(=O)Nc2ccc(C)c(Nc3nccc(-c4cncc(Br)c4)n3)c2)ccc1CN1CCN(C)CC1.Cl [Example 14, 3-methoxy-4-(4-methylpiperazin-1-ylmethyl)-N-{3-[4-(5-bromopyridin-3-yl)pyrimidin-2-ylamino]-4-methylphenyl}benzamide hydrochloride]
U937 cells; [1]
  IC50: 2 µM
other
  melting point: 168 to 169 °C (dec.)
K562 cells
  IC50: 0.0079 µM
  Ratio (U937 cells/K562 cells): 253

## CCN1CCN(Cc2ccc(C(=O)Nc3ccc(C)c(Nc4nccc(-c5cncnc5)n4)c3)cc2C(F)(F)F)CC1.Cl [Example 16, 4-(4-ethylpiperazin-1-ylmethyl)-3-trifluoromethyl-N-{4-methyl-3-[4-(5-pyrimidinyl)pyrimidin-2-ylamino]phenyl}benzamide hydrochloride]
U937 cells; [1]
  IC50: 4.1 µM
other
  melting point: 256 to 259 °C (dec.)
K562 cells
  IC50: 0.0011 µM
  Ratio (U937 cells/K562 cells): 3727

## Cc1ccc(NC(=O)c2ccc(CC3CCN(C)CC3)c(CF)c2)cc1Nc1nccc(-c2cncnc2)n1 [Example 21, 3-fluoromethyl-4-(1-methylpiperidin-4-ylmethyl)-N-{4-methyl-3-[4-(5-pyrimidinyl)pyrimidin-2-ylamino]phenyl}benzamide]
U937 cells; [2]
  IC50: 42 µM
K562 cells
  IC50: 0.0063 µM
  Ratio (U937 cells/K562 cells): 6667

## Cc1ccc(NC(=O)c2ccc(CN3CCN(C)CC3)c(C(F)(F)F)c2)cc1Nc1cc(-c2cccnc2)ccn1 [Example 28, 4-(4-methylpiperazin-1-ylmethyl)-3-trifluoromethyl-N-{4-methyl-3-[4-(3-pyridyl)pyridin-2-ylamino]phenyl}benzamide]
other
  melting point: 241 to 242 °C (dec.)

## Cc1ccc(NC(=O)c2ccc(CN3CCN(C)CC3)c(C(F)(F)F)c2)cc1Nc1cc(-c2cccnc2)ccn1 [Example 29, 4-(4-methylpiperazin-1-ylmethyl)-3-trifluoromethyl-N-{4-methyl-3-[4-(3-pyridyl)pyridin-2-ylamino]phenyl}benzamide methanesulfonate]
U937 cells; [2]
  IC50: 1.4 µM
K562 cells
  IC50: 0.0017 µM
  Ratio (U937 cells/K562 cells): 824

## Cc1ccc(NC(=O)c2ccc(CN3CC[C@@H](N(C)C)C3)c(C(F)(F)F)c2)cc1Nc1nccc(-c2cncnc2)n1.Cl [Example 38, (+)-4-[(R)-3-(dimethylamino)pyrrolidin-1-ylmethyl]-3-trifluoromethyl-N-{4-methyl-3-[4-(5-pyrimidinyl)pyrimidin-2-ylamino]phenyl}benzamide hydrochloride]
U937 cells; [2]
  IC50: 8.9 µM
K562 cells
  IC50: 0.0019 µM
  Ratio (U937 cells/K562 cells): 4684

## Cc1ccc(NC(=O)c2ccc(CN3CCNCC3)c(C(F)(F)F)c2)cc1Nc1nccc(-c2cncnc2)n1 [Example 43, 4-(1-piperazinylmethyl)-3-trifluoromethyl-N-{4-methyl-3-[4-(5-pyrimidinyl)pyrimidin-2-ylamino]phenyl}benzamide trifluoroacetate]
U937 cells; [2]
  IC50: 3.9 µM
K562 cells
  IC50: 0.0011 µM
  Ratio (U937 cells/K562 cells): 3545

## Cc1ccc(NC(=O)c2ccc(CN3CC[C@H](N)C3=O)c(C(F)(F)F)c2)cc1Nc1nccc(-c2cncnc2)n1 [Example 46, (−)-4-((S)-3-amino-2-oxopyrrolidin-1-ylmethyl)-3-trifluoromethyl-N-{4-methyl-3-[4-(5-pyrimidinyl)pyrimidin-2-ylamino]phenyl}benzamide]
U937 cells; [2]
  IC50: 29 µM
K562 cells
  IC50: 0.019 µM
  Ratio (U937 cells/K562 cells): 1526

## Cc1ccc(NC(=O)c2ccc(CN3CC[C@H](N(C)C)C3)c(C(F)(F)F)c2)cc1Nc1nccc(-c2cncnc2)n1.Cl [Example 48, (−)-4-[(S)-3-(dimethylamino)pyrrolidin-1-ylmethyl]-3-trifluoromethyl-N-{4-methyl-3-[4-(5-pyrimidinyl)pyrimidin-2-ylamino]phenyl}benzamide hydrochloride]
U937 cells; [2]
  IC50: 12 µM
K562 cells
  IC50: 0.004 µM
  Ratio (U937 cells/K562 cells): 3000

## Cc1ccc(NC(=O)c2ccc(CN3CCC[C@H]3CN3CCCC3)c(C(F)(F)F)c2)cc1Nc1nccc(-c2cncnc2)n1.Cl [Example 52, (−)-4-[(S)-2-(1-pyrrolidinylmethyl)pyrrolidin-1-ylmethyl]-3-trifluoromethyl-N-{4-methyl-3-[4-(5-pyrimidinyl)pyrimidin-2-ylamino]phenyl}benzamide hydrochloride]
U937 cells; [2]
  IC50: 3.9 µM
K562 cells
  IC50: 0.004 µM
  Ratio (U937 cells/K562 cells): 975

## Cc1ccc(NC(=O)c2ccc(CN3CCN[C@@H](C)C3)c(C(F)(F)F)c2)cc1Nc1nccc(-c2cncnc2)n1.Cl [Example 55, 4-((S)-3-methylpiperazin-1-ylmethyl)-3-trifluoromethyl-N-{4-methyl-3-[4-(5-pyrimidinyl)pyrimidin-2-ylamino]phenyl}benzamide]
U937 cells; [2]
  IC50: 10 µM
K562 cells
  IC50: 0.0022 µM
  Ratio (U937 cells/K562 cells): 4545

## CO[C@H]1CN(Cc2ccc(C(=O)Nc3ccc(C)c(Nc4nccc(-c5cncnc5)n4)c3)cc2C(F)(F)F)C[C@@H]1N(C)C.Cl [Example 59, 4-[(3S,4S)-3-(dimethylamino)-4-methoxypyrrolidin-1-ylmethyl]-3-trifluoromethyl-N-{4-methyl-3-[4-(5-pyrimidinyl)pyrimidin-2-ylamino]phenyl}benzamide hydrochloride]
U937 cells; [2]
  IC50: 13 µM
K562 cells
  IC50: 0.0081 µM
  Ratio (U937 cells/K562 cells): 1605

## CN[C@H]1CCN(Cc2ccc(C(=O)Nc3ccc(C)c(Nc4nccc(-c5cncnc5)n4)c3)cc2C(F)(F)F)C1 [Example 68, (−)-4-[(S)-3-(methylamino)pyrrolidin-1-ylmethyl]-3-trifluoromethyl-N-{4-methyl-3-[4-(5-pyrimidinyl)pyrimidin-2-ylamino]phenyl}benzamide]
U937 cells; [2]
  IC50: 5.8 µM
K562 cells
  IC50: 0.0024 µM
  Ratio (U937 cells/K562 cells): 2417
